Results from patent US11872296B2, “Preservation compositions” (Conopco, Inc., priority 2018, dated 2024).

Tests used:
[1] = tested on: Gram negative non-fermenting bacteria: Pseudomonas aeruginosa, Pseudomonas putida & Burkholderia cepacia; assay: Liquid broth checkerboard assay (MIC, ΣFIC synergy), Pool 1; type: cell-based; conditions: tryptic soy broth, 30° C., 24 hours, ΣFIC<1 synergistic
From the text: (§1) The differing behaviours of inhibitory antimicrobials in isolation and mixtures have been widely explored using the concept of the Fractional Concentration and Fractional Inhibitory Concentration (FIC). See for instance JRW Lambert and R Lambert, J. Appl. Microbiol 95, 734 (2003); T. Jadavji, CG Prober and R Cheung, Antimicrobial Agents and Chemotherapy 26, 91 (1984), and WO 2004/006876. These parameters can be defined as follows:
(§2) FC (component a)=Concentration of component a tested in the mixture/MIC (component a tested as a single active)
(§3) FIC (component a)=MIC (component a tested in the mixture)/MIC (component a tested as a single active)
(§4) The interactions between antimicrobials can be additive, synergistic or possibly antagonistic depending on whether the efficacy of the combination is equivalent to, greater than or less than that obtained for the same total concentration of the individual components when tested alone.
(§5) These relationships can be expressed mathematically by summing the fractional MIC values for all the components present in the mixture to give the “fractional inhibitory index”: ΣFIC=FIC(component 1)+FIC(component 2) Such that: ΣFIC≥1 corresponds to additive or antagonistic activity ΣFIC<1 corresponds to synergistic activity
(§6) Liquid broth assays (MIC and checkerboard) were conducted to identify the minimum concentration(s) of individual and binary combinations of preservation chemicals. A modified methodology to ISO 20776-1:2006 was utilised for the screening as follows. Stock solutions of preservation chemicals and tryptic soy broth were inoculated with 1-5×10^6 microorganisms and incubated at 30° C. for 24 hours, after which optical densities at OD600nm were measured. […] Preservation chemicals were screened at a concentration range of 0.0156-2%.

[2] = tested on: Gram negative fermenting bacteria: Enterobacter gergoviae & Klebsiella species; assay: Liquid broth checkerboard assay (MIC, ΣFIC synergy), Pool 2; type: cell-based; conditions: tryptic soy broth, 30° C., 24 hours, ΣFIC<1 synergistic
From the text: as §1, §2, §3, §4, §5, §6

[3] = binary combination with Citric Acid
[4] = binary combination with Itaconic acid

| Structure (SMILES) | ΣFIC synergy score [1, 3] | ΣFIC synergy score [1, 4] | ΣFIC synergy score [2, 3] | ΣFIC synergy score [2, 4] |
| --- | --- | --- | --- | --- |
| CCCCc1ccc(O)cc1 [4-n-butyl phenol] | 0.50 | 0.44 | 0.59 | 0.50 |
| CCOc1cc(C=O)ccc1O [Ethylvanillin] | 0.63 | 0.56 | 0.69 | 0.63 |
| C=CCc1ccc(O)c(OC)c1 [Eugenol] | 0.75 | 0.38 | 0.53 | 0.38 |
